# Experimental data reported in US9493464B2, “Wee1 degradation inhibitors” (The Scripps Research Institute, priority 2012, dated 2016).
# “Also recorded” adds a separate entry of the source.
# How the values were obtained:
# [1] = test system: 296 kinases; experiment: Kinase profile of 296 kinases (Reaction Biology Corporation); type: biochemical; details: result in words
# [2] = test system: Luciferase; experiment: Luciferase alone control (PGL3 vector); type: cell-based; details: HeLa cells, cycloheximide, 5 μM; result in words
# Protocol: (§1) The percentage of signal relative to the proteasome inhibitor MG132 is shown. […] A Western blot is shown of endogenous Wee1 or Skp1 (loading control) of HeLa cells incubated with 5 μM of indicated compounds for 24 hours. […] The 0 time point was set to 100%. […] The extent of degradation was measured as in FIG. D.
# 5 μM of indicated compounds were incubated with K328M-Wee1-Luciferase or Luciferase expressing HeLa cells and the extent of stabilization measured after adding Brite-lite. MG132 was used as a positive control.
# Similar assays have previously been described; PubChem AID 1807.
# [3] = test system: endogenous Wee1; experiment: Western blot of endogenous Wee1; type: cell-based; details: result in words
# Protocol: as §1
# [4] = test system: cyclin dependent kinases; experiment: Kinase activity, cyclin dependent kinases; type: biochemical; details: result in words
# Text: CNS neurogenesis requires Cdk1 activity regulated by the phosphatase Cdc25 and the tyrosine kinase Wee1[1]. Cdk1 activity decreases in normal adult neurons and is reactivated in neurological diseases such as Alzheimer's[2]. A major mechanism controlling Cdk1 activity in neurons is Wee1 degradation via the ubiquitin proteasome pathway. It was sought to identify pathways controlling neuronal Wee1 degradation using cerebellar granule cells and a reporter of Wee1 turnover, K328M-Wee1-Luciferase[4].
# [5] = test system: K328M-Wee1-luciferase; experiment: K328M-Wee1-luciferase degradation with cycloheximide; type: cell-based; details: HeLa cells, 5 μM, result in words
# Protocol: as §1
# [6] = target: T1, CK1ε (Homo sapiens, UniProt P49674); experiment: In vitro kinase assay, CK1ε (Reaction Biology Corporation); type: biochemical; details: 10 μM ATP
# T1 construct: Reaction Biology Corporation (contract assay)
# Protocol: Compounds were tested in 10-dose IC50 mode with 3-fold serial dilution starting at 50 μM. […] Reactions were carried out at 10 μM ATP. Average and standard deviations of reactions carried out in triplicate are shown.
# In vitro kinase assay to detect CK1 or FLT3 activity: CK1 and FLT3 assays as well as complete kinase profile of 296 kinases was performed by Reaction Biology Corporation. For FLT3 20 μM final Abltide was used, sequence: [[…]]. For CK1 (all isoforms) 20 μM CK1 tide was used, sequence: [KRRRAL[pS]VASLPGL] in a standard kinase assay with ^32P-ATP and purified kinase. Incorporation of ^32P-ATP into the peptide was measured after a filter-binding assay. In-house CK1d inhibition assays were performed using a standard homogenous time-resolved fluorescence resonance energy transfer (TR-FRET) format in 50 mM Hepes, pH 7.0, 2.5 mM MgCl2, 0.1 mg/ml bovine serum albumin, 1 mM DL-dithiothreitol, 0.01% Triton X-100 (all from Sigma-Aldrich). […] Assays were performed in the presence of 2 μL of compound at different (measured) concentrations, and reactions were stopped by adding 10 μL of 4 nM Eu-anti-p-Topo-IIa (PerkinElmer) in Lance Detection Buffer (Perkin Elmer). Upon excitation of the Eu-labeled antibody, energy is transferred to the acceptor dye resulting in the emission of detected light at 665 nm.
# T1 sequence (P49674 whole entry): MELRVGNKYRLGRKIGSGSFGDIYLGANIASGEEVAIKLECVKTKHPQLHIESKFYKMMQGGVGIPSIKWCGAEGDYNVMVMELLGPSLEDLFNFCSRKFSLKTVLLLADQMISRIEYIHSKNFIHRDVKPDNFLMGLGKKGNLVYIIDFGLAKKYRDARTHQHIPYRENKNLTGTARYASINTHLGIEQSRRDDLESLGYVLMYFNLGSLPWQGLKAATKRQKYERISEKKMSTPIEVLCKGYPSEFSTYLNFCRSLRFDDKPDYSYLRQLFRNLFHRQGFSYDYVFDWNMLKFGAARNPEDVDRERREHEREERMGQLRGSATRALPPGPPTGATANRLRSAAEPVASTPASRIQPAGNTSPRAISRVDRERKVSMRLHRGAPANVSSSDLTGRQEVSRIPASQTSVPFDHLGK
structure (smiles),measurement,setting,value
c1ccc2[nH]c(CNc3nc(N4CCOCC4)nc4c3ncn4-c3ccsc3)nc2c1 [SR-653234],selectivity among 296 kinases,[1],highly selective for casein kinase
same,luciferase degradation,[2],does not affect luciferase degradation
same,steady-state levels of endogenous Wee1,[3],increased the steady-state levels of endogenous Wee1
same,activity toward cyclin dependent kinases,[4],does not show any appreciable activity
same,K328M-Wee1-luciferase degradation,[5],inhibited degradation of K328M-Wee1-luciferase; also recorded: inhibits K328M-Wee1-luciferase degradation
same,IC50,[6],100 nM
